Each structure is given as a SMILES string.

The assay has as its target T1, mTRPC5 (Mus musculus, UniProt Q9QX29).
T1 construct: expressed in transfected cells
T1 sequence (Q9QX29 1-975): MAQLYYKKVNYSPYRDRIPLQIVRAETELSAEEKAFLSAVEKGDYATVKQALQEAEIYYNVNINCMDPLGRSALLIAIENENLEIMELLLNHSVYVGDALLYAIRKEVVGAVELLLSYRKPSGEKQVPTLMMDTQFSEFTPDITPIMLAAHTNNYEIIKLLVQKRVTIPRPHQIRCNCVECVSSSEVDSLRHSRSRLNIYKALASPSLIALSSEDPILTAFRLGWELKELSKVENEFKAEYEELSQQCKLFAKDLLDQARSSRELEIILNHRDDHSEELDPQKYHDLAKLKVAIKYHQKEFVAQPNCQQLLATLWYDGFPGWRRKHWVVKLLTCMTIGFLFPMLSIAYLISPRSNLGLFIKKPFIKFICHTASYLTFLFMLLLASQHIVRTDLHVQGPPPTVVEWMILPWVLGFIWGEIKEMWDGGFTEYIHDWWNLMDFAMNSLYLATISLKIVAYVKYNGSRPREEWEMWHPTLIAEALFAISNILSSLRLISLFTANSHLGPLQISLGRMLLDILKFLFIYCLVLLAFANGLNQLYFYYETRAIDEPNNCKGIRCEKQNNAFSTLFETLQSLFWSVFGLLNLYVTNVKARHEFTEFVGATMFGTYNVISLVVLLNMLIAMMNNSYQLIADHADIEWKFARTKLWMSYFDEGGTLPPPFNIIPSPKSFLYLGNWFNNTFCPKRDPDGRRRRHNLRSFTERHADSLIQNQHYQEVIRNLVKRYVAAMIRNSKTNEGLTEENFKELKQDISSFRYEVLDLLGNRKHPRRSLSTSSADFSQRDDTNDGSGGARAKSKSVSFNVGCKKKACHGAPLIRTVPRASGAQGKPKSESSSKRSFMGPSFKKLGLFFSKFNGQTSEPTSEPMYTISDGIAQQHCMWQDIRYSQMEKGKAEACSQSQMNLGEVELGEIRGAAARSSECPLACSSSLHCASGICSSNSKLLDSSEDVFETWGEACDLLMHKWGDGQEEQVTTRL
The assay can be described thus: Trypsin-induced Ca2+ entry, fluo-4 fluorometric imaging plate reader, TRPC5 HEK-FITR cells. In kind it is cell-based. The procedure:
Cells were grown at 37°C in a humidified atmosphere (5% or 7% CO2) under standard cell culture conditions. Stable human embryonic kidney (HEK) cell lines expressing recombinant mTRPC4ß (GenBank accession number AAC05178); mTRPC5 (GenBank accession number NM_009428) or hTRPC6 (GenBank accession number AF080394) under the control of a tetracycline-inducible promoter were generated using the Flp-In T-Rex (FITR) system (Invitrogen, Karlsruhe, Germany). […]
Cells grown to an almost confluent monolayer on black poly-D-lysine coated 96-well plates (Greiner, Frickenhausen, Germany) were washed with standard extracellular solution (140 mM NaCl, 1 mM MgCl2, 5.4 mM KCl, 2 mM CaCl2, 10 mM HEPES, 10 mM glucose, pH 7.35) and stained (30 min, room temperature) with dye solution (2 µM fluo-4 AM, 0.02% pluronic F127, 0.1% bovine serum albumin in standard extracellular solution). […] Fluo-4 fluorescence was excited at 488 nm with an argon laser and measured using a fluorometric imaging plate reader (Molecular Devices, Sunnyvale, USA). […]
TRPC4- and TRPC5-mediated Ca^2+ influx was stimulated by application of trypsin that activates endogenous Gq-coupled protease activated receptors in HEK cells. […] Compound effects were then calculated from the area under the curve and normalized to the Ca^2+ influx into trypsin-stimulated, non-compound-treated cells. […]

The IC50 is the concentration that inhibits the measured activity by half. Take `CC(=O)[C@H]1CC[C@H]2[C@@H]3CCC4=CC(=O)CC[C@]4(C)[C@H]3CC[C@]12C` [progesterone]: the IC50 (TRPC5 HEK-FITR cells, fluo-4, 200 nM trypsin, read-out: IC50, inhibition of trypsin-induced Ca2+ entry via TRPC5) worked out at 11.8 µM. The “Hill slope n, inhibition of TRPC5-mediated Ca2+ entry” value (fit to Hill model) is given as 2.5.

The record behind these values is paper PMC3328449, “Inhibition of Diacylglycerol–Sensitive TRPC Channels by Synthetic and Natural Steroids” (PLoS ONE, 2012).
